Source: ChEMBL document CHEMBL6092142, “Discovery and preclinical profile of YK-2168, a differentiated selective CDK9 inhibitor in clinical development” (Bioorg Med Chem Lett, 2024)
In brackets after ≈: the same amount, converted by molar mass. One block for each compound: values may come before it. Activity calls are given as the source filed them. No cut-off for these calls is given here.

What was measured:
SNU-16 = test: Antitumor activity against human SNU-16 cells xenografted in iv dosed mouse assessed as tumor growth inhibition; type: functional, organism-based; settings: dose 5-15 mg/kg
Cytochrome P450 1A2 [1] = target: T1, Cytochrome P450 1A2 (Homo sapiens, UniProt P05177); test: Inhibition of CYP1A2 (unknown origin); type: ADME
T1 sequence (P05177 whole entry): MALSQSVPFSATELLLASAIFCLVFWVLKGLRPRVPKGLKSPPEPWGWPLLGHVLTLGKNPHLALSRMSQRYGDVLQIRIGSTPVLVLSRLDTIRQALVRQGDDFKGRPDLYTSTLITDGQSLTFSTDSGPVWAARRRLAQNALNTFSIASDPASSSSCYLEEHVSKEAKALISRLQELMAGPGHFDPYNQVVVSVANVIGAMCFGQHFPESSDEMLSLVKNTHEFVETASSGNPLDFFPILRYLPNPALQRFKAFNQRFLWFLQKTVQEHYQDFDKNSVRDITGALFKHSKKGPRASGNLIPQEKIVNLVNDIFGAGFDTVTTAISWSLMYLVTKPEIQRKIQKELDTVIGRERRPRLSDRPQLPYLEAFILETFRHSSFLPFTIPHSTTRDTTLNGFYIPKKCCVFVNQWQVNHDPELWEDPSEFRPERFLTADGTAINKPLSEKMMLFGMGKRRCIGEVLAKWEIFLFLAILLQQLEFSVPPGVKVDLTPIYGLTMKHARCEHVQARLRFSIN

[2] = target: Cyclin-dependent kinase 1 (Homo sapiens, UniProt P06493); test: Inhibition of CDK1 (unknown origin)
Cytochrome P450 2C19 [3] = target: T2, Cytochrome P450 2C19 (Homo sapiens, UniProt P33261); test: Time dependent inhibition of CYP2C19 (unknown origin); type: ADME
[4] = Aqueous solubility of compound at pH 4; type: physicochemical
Cytochrome P450 2C8 [5] = target: T3, Cytochrome P450 2C8 (Homo sapiens, UniProt P10632); test: Inhibition of CYP2C8 (unknown origin); type: ADME
T3 sequence (P10632 whole entry): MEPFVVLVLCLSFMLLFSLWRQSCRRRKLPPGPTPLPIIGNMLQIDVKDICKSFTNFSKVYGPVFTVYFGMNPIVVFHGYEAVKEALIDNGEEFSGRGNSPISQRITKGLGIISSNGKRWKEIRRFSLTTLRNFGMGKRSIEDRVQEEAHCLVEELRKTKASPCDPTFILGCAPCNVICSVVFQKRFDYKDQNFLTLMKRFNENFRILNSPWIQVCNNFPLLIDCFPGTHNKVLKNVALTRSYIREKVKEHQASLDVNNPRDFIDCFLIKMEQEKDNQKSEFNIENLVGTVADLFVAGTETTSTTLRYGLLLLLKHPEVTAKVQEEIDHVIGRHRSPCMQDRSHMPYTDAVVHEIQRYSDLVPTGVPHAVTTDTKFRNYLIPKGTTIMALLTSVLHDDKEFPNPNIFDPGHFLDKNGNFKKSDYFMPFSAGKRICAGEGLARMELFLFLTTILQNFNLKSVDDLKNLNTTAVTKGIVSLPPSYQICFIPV

[6] = target: Voltage-gated inwardly rectifying potassium channel KCNH2 (Homo sapiens, UniProt Q12809); test: Inhibition of hERG upto 30 uM; type: toxicity
Cytochrome P450 2B6 = target: T4, Cytochrome P450 2B6 (Homo sapiens, UniProt P20813); test: Inhibition of CYP2B6 (unknown origin); type: ADME
T4 sequence (P20813 whole entry): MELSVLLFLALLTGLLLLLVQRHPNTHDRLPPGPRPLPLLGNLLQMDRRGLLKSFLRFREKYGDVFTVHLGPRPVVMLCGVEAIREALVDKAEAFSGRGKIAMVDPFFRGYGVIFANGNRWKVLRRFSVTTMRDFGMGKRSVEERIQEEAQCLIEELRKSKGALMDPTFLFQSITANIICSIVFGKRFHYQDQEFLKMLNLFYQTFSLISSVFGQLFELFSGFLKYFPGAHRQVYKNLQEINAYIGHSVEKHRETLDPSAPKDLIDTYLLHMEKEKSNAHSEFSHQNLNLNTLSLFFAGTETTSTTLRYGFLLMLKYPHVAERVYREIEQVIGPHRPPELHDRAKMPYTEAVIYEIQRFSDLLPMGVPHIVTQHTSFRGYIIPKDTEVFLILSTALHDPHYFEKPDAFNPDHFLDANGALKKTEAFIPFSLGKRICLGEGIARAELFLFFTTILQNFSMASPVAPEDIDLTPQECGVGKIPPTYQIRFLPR

Cytochrome P450 2C9 [7] = target: T5, Cytochrome P450 2C9 (Homo sapiens, UniProt P11712); test: Inhibition of CYP2C9 (unknown origin); type: ADME
[8] = Permeability across apical to basolateral side in human Caco-2 cells; type: ADME, cell-based; settings: read-out: permeability
[9] = Clearance in Beagle dog at 1 mg/kg, iv; type: ADME, organism-based, Canis lupus familiaris; settings: in vivo
[10] = Metabolic stability in mouse hepatocytes assessed as half life; type: ADME, cell-based, Hepatocyte
Cytochrome P450 3A4 [11] = target: T6, Cytochrome P450 3A4 (Homo sapiens, UniProt P08684); test: Inhibition of CYP3A4 (unknown origin); type: ADME
Cytochrome P450 2D6 [12] = target: T7, Cytochrome P450 2D6 (Homo sapiens, UniProt P10635); test: Inhibition of CYP2D6 (unknown origin); type: ADME
[13] = Volume of distribution in Sprague-Dawley rat at 4 mg/kg, iv; type: ADME, organism-based; settings: in vivo
[14] = target: Cyclin-dependent kinase 9 (Homo sapiens, UniProt P50750); test: Inhibition of CDK9 (unknown origin)
[15] = Efflux ratio of permeability basolateral to apical side over apical to basolateral side in human Caco-2 cells; type: ADME, cell-based
[16] = Metabolic stability in dog hepatocytes assessed as half life; type: ADME, cell-based, Canis lupus familiaris, Hepatocyte
MV4-11 [17] = test: Antitumor activity against human MV4-11 cells xenografted in mouse assessed as reduction in MYC level in tumor at 5 to 15 mg/kg, iv measured upto 24 hrs by Western blot analysis; type: functional, organism-based; settings: dose 5-15 mg/kg
Cytochrome P450 2D6 [18] = target: T7, Cytochrome P450 2D6; test: Time dependent inhibition of CYP2D6 (unknown origin); type: ADME
Cytochrome P450 3A4 [19] = target: T6, Cytochrome P450 3A4; test: Induction of CYP3A4 (unknown origin); type: ADME
[20] = Half life in Sprague-Dawley rat at 4 mg/kg, iv; type: ADME, organism-based; settings: in vivo
[21] = Toxicity in mouse assessed as change in body weight at 10 mg/kg, iv measured upto 28 days; type: organism-based; settings: in vivo, 672 h, time < 28 day
[22] = AUC (0 to 24 hrs) in Sprague-Dawley rat at 4 mg/kg, iv; type: ADME, organism-based; settings: in vivo
[23] = Clearance in CD-1 mouse at 2 mg/kg, iv; type: ADME, organism-based; settings: in vivo
Cytochrome P450 3A4 [24] = target: T6, Cytochrome P450 3A4; test: Time dependent inhibition of CYP3A4 (unknown origin); type: ADME
[25] = Clearance in Sprague-Dawley rat at 4 mg/kg, iv; type: ADME, organism-based; settings: in vivo
[26] = Metabolic stability in monkey hepatocytes assessed as half life; type: ADME, cell-based, Macaca mulatta, Hepatocyte; settings: rhesus monkey
[27] = AUC (0 to 24 hrs) in Beagle dog at 1 mg/kg, iv; type: ADME, organism-based, Canis lupus familiaris; settings: in vivo
MV4-11 [28] = test: Antitumor activity against human MV4-11 cells xenografted in iv dosed mouse assessed as reduction in pol II CTD level in tumor measured upto 24 hrs by Western blot analysis; type: functional, organism-based; settings: dose 5-15 mg/kg
[29] = AUC (0 to 24 hrs) in CD-1 mouse at 2 mg/kg, iv; type: ADME, organism-based; settings: CD-1, mouse, in vivo
[30] = Volume of distribution in Beagle dog at 1 mg/kg, iv; type: ADME, organism-based, Canis lupus familiaris; settings: in vivo
Cytochrome P450 2C19 [31] = target: T2, Cytochrome P450 2C19; test: Inhibition of CYP2C19 (unknown origin); type: ADME
[32] = Plasma protein binding in human; type: ADME, cell-free; settings: read-out: PPB (converted)
Cytochrome P450 2C9 [33] = target: T5, Cytochrome P450 2C9; test: Time dependent inhibition of CYP2C9 (unknown origin); type: ADME
[34] = Metabolic stability in human hepatocytes assessed as half life; type: ADME, cell-based, Hepatocyte
MV4-11 [35] = test: Antiproliferative activity against human MV4-11 cells assessed as cell viability; type: functional, cell-based
[36] = Selectivity index, ratio of IC50 for inhibition of CDK1 (unknown origin) to IC50 for inhibition of CDK9 (unknown origin)
MV4-11 [37] = test: Antitumor activity against human MV4-11 cells xenografted in mouse assessed as tumor growth inhibition at 10 mg/kg, iv measured upto 28 days; type: functional; settings: MV4-11, 672 h, time <= 28 day, read-out: TGI
Cytochrome P450 1A2 [38] = target: T1, Cytochrome P450 1A2; test: Time dependent inhibition of CYP1A2 (unknown origin); type: ADME
MV4-11 [39] = test: Antitumor activity against human MV4-11 cells xenografted in mouse assessed as upregulation of caspase-3 level in tumor at 5 to 15 mg/kg, iv by Western blot analysis; type: functional, organism-based; settings: dose 5-15 mg/kg, time <= 24.0 hrs
[40] = Permeability across basolateral to apical side in human Caco-2 cells; type: ADME, cell-based; settings: read-out: permeability
[41] = target: Cyclin-dependent kinase 2 (Homo sapiens, UniProt P24941); test: Inhibition of CDK2 (unknown origin)
MV4-11 [42] = test: Antitumor activity against human MV4-11 cells xenografted in mouse assessed as reduction in Mcl1 level in tumor at 5 to 15 mg/kg, iv measured upto 24 hrs by Western blot analysis; type: functional, organism-based; settings: dose 5-15 mg/kg
[43] = Half life in Beagle dog at 1 mg/kg, iv; type: ADME, organism-based, Canis lupus familiaris; settings: in vivo
[44] = Half life in CD-1 mouse at 2 mg/kg, iv; type: ADME, organism-based; settings: CD-1, mouse, in vivo
[45] = Volume of distribution in CD-1 mouse at 2 mg/kg, iv; type: ADME, organism-based; settings: CD-1, mouse, in vivo, read-out: Vd
[46] = Selectivity index, ratio of IC50 for inhibition of CDK2 (unknown origin) to IC50 for inhibition of CDK9 (unknown origin)
[47] = Metabolic stability in rat hepatocytes assessed as half life; type: ADME, cell-based, Hepatocyte
Cytochrome P450 2C8 [48] = target: T3, Cytochrome P450 2C8; test: Time dependent inhibition of CYP2C8 (unknown origin); type: ADME

T6 sequence (P08684 whole entry): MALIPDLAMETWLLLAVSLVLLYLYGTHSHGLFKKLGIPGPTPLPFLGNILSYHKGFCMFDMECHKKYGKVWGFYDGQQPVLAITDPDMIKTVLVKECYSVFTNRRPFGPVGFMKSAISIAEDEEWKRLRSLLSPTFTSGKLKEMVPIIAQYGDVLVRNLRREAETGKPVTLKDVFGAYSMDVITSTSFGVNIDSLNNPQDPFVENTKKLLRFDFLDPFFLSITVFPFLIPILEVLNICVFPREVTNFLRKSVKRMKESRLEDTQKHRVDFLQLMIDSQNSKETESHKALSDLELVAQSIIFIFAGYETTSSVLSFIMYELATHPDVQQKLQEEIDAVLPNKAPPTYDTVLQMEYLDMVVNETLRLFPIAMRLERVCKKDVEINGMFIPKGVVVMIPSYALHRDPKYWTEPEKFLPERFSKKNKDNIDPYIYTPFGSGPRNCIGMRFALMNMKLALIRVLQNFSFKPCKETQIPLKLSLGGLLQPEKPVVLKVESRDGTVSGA
T5 sequence (P11712 whole entry): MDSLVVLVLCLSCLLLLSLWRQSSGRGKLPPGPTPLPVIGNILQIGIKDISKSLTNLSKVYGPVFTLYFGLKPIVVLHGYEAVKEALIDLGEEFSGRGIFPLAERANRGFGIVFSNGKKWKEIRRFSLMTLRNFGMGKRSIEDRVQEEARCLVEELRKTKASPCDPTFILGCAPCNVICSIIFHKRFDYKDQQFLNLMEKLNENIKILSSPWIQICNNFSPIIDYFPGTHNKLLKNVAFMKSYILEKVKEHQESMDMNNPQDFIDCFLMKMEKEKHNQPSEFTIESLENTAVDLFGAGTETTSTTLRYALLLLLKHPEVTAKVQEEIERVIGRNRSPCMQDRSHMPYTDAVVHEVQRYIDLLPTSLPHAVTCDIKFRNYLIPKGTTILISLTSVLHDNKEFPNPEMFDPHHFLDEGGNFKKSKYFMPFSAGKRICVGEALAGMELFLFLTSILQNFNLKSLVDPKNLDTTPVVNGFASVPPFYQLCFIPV
T7 sequence (P10635 whole entry): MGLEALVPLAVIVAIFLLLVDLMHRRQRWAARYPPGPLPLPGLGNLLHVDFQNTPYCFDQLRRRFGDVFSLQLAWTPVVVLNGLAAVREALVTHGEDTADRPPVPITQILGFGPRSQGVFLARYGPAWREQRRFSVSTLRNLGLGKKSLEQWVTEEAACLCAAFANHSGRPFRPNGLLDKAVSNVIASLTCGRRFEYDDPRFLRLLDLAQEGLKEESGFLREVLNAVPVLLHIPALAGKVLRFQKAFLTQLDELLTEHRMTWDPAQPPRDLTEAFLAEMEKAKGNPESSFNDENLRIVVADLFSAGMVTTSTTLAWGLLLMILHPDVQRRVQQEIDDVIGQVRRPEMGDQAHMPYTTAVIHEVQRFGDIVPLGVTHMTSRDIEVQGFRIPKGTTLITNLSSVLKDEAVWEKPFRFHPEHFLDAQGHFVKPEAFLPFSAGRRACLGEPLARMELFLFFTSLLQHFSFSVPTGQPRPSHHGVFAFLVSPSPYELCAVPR
T2 sequence (P33261 whole entry): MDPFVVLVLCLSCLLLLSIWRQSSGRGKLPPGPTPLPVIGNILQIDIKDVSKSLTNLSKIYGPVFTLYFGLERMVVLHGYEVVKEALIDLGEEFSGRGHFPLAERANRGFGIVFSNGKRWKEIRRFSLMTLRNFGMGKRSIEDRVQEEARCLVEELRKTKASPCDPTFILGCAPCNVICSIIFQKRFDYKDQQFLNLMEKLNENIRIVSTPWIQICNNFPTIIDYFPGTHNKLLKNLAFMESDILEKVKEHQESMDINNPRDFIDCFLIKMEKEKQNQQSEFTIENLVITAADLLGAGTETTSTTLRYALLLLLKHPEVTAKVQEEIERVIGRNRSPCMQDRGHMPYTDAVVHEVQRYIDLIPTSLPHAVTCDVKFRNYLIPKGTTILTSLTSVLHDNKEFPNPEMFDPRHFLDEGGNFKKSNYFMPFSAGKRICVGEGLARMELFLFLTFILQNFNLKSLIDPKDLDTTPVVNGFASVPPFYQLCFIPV
Voltage-gated inwardly rectifying potassium channel KCNH2, sequence (Q12809 whole entry): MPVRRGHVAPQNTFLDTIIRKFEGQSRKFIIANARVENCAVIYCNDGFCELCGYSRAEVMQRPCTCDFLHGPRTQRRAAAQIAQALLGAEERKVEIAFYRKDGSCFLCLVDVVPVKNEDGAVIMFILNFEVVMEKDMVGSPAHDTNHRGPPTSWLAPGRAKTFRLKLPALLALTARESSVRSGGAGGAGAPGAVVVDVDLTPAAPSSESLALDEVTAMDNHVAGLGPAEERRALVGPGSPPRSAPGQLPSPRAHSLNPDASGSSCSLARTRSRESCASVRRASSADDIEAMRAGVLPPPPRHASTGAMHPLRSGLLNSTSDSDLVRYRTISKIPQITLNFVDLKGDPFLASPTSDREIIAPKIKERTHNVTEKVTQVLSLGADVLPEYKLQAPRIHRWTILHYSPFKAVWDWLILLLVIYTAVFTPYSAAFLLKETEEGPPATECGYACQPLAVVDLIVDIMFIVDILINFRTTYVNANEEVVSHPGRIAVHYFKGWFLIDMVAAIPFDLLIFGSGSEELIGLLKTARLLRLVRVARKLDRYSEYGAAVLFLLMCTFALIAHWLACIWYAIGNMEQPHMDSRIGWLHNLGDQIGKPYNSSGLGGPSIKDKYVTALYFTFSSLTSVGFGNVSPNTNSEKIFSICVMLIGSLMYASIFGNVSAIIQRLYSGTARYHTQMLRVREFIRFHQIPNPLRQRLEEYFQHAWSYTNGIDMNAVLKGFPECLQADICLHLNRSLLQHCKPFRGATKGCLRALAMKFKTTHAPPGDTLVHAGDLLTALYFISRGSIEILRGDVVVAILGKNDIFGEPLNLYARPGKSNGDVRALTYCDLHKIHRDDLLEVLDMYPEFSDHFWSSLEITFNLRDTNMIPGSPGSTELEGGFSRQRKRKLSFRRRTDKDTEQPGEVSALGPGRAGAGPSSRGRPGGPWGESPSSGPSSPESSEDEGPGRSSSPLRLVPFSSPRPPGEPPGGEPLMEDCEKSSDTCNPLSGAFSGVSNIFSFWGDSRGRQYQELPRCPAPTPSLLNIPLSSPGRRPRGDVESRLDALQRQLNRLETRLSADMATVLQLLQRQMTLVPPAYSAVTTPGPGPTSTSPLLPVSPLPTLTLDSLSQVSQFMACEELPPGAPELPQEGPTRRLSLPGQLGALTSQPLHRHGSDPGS
Cyclin-dependent kinase 9, sequence (P50750 whole entry): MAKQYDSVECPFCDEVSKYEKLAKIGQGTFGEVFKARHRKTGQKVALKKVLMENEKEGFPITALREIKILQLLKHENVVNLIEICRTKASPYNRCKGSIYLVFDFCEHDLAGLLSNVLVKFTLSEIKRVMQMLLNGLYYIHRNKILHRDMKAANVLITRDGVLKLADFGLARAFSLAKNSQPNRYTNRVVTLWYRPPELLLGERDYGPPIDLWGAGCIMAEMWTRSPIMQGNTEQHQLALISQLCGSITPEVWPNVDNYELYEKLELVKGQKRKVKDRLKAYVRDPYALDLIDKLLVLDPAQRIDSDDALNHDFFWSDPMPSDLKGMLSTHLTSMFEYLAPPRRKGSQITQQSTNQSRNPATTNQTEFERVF
Cyclin-dependent kinase 1, sequence (P06493 whole entry): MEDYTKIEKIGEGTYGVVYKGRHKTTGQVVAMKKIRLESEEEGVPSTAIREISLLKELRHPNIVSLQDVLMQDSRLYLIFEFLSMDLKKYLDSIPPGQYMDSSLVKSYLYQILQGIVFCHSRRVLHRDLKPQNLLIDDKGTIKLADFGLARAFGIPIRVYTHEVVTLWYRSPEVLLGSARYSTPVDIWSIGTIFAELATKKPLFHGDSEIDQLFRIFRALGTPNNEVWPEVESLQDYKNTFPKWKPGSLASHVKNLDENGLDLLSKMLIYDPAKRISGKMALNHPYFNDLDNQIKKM

IC50 (Cytochrome P450 1A2 [1]): 44700 nM
IC50 [2]: 428 nM
TDI (Cytochrome P450 2C19 [3]): Not_active
solubility [4]: 1500 µg/mL (≈ 4.75 mM)
IC50 (Cytochrome P450 2C8 [5]): > 100000 nM
IC50 (Cytochrome P450 2B6): > 100000 nM
IC50 (Cytochrome P450 2C9 [7]): > 100000 nM
Papp A→B [8]: 0.82 ×10⁻⁶ cm/s
clearance [9]: 29.1 mL/min/kg
half-life [10]: 1.35 h
IC50 (Cytochrome P450 3A4 [11]): > 100000 nM
IC50 (Cytochrome P450 2D6 [12]): > 100000 nM
Vd [13]: 11.2 L/kg
IC50 [14]: 5.9 nM
efflux ratio [15]: 17
half-life [16]: > 4.66 h
TDI (Cytochrome P450 2D6 [18]): Not_active
Activity (Cytochrome P450 3A4 [19]): Not_active
half-life [20]: 3.2 h
AUC(0-t) [22]: 1250 ng·h/mL
clearance [23]: 115 mL/min/kg
TDI (Cytochrome P450 3A4 [24]): Not_active
clearance [25]: 52 mL/min/kg
half-life [26]: 4.4 h
AUC(0-t) [27]: 568 ng·h/mL
AUC(0-t) [29]: 0.916 µM·h
Vd [30]: 7.62 L/kg
IC50 (Cytochrome P450 2C19 [31]): 96200 nM
fraction unbound [32]: 0.711
TDI (Cytochrome P450 2C9 [33]): Not_active
half-life [34]: > 4.66 h
IC50 (MV4-11 [35]): 53.4 nM
Ratio IC50 [36]: 72.5
TDI (Cytochrome P450 1A2 [38]): Not_active
Papp B→A [40]: 13.9 ×10⁻⁶ cm/s
IC50 [41]: 267 nM
half-life [43]: 3.96 h
half-life [44]: 1.47 h
Vd [45]: 10.2 L/kg
Ratio IC50 [46]: 45.2
half-life [47]: 3.71 h
TDI (Cytochrome P450 2C8 [48]): Not_active
SMILES: Cn1cc(-c2c(Cl)cnc3[nH]c(C4CCNCC4)cc23)cn1
TGI (SNU-16): Dose-dependent-effect; Partial Response Is Observed In 2/8 Mouse At 5 Mg/Kg Group, Partial Response Observed In 6/8 Mouse At 10 Mg/Kg And Partial Response Is Observed In 7/8 Mouse At 15 Mg/Kg Dose Group.
inhibition (INH) [6]: Not_active
Activity (MV4-11 [17]): Active
Activity [21]: Non-toxic
Activity (MV4-11 [28]): Dose-dependent-effect
inhibition in vivo at 10 mg/kg (MV4-11 [37]): 80%
Activity (MV4-11 [39]): Time-dependent-effect
Activity (MV4-11 [42]): Active

IC50 (MV4-11 [35]): 94.8 nM
Ratio IC50 [36]: 73.3
Ratio IC50 [46]: 32.4
SMILES: CC(C)N1CCC(c2cc3c(-c4cnn(CC5CC5)c4)c(Cl)cnc3[nH]2)CC1
